Assay results: patent US20080031866A1, “METHOD FOR MODULATING THE PHARMACOKINETICS AND METABOLISM OF A THERAPEUTIC AGENT” (priority 2006, published 2008)

Columns and labels:
[1] = Intracolonic dosing with and without β-glucuronidase, catheterized rat; assay type: in vivo; conditions: male, Sprague Dawley, rat, plasma, 10 mg/kg; for Cmax: read-out: Cmax average ± standard deviation; for concentration at 0 h / concentration at 0.25 h / concentration at 0.5 h / concentration at 1 h / concentration at 2 h / concentration at 3 h / concentration at 4 h / concentration at 5 h / concentration at 6 h: other: intracolonic
Method: A catheterized rat model was used in which the agent alone or agent and β-glucuronidase enzyme was administered intraduodenally or intracolonically. The intraduodenal and intracolonic dosing was intended to prevent the potential for loss of enzymatic activity when orally dosing the β-glucuronidase (e.g. by degradation in the stomach). […]
For the oral gavage dosing, Compound 1 was prepared in neat PEG-400. For the intraduodenal and intracolonic dosing solutions, Compound 1 was added to neat Tween 80, the mixture was sonicated for thirty minutes at 45° C. until Compound 1 was completely dissolved and then deionized (DI) water was added to form a solution consisting of 20% Tween 80 and 80% DI water by weight.
For the oral enzyme solutions, β-glucuronidase was added to the final formulation at a concentration of 57,600 units/ml.
For the intraduodenal and intracolonic dosing, male Sprague Dawley rats weighing 300-400 g were purchased from Charles River Labs. All rat experiments were conducted under approved animal protocols. The rats were catheterized at Charles River Labs and had one or more of the following chronic catheters for dosing and sampling: jugular/carotid, duodenal, and colonic. Rats were limited to only one GI catheter and one vascular catheter. For IV dosing, rats were purchased with jugular and carotid catheters for dosing in the jugular catheter and blood sampling through the carotid catheter. For intraduodenal/intracolonic dosing, rats had one of the GI catheters for dosing and a carotid catheter for blood sampling.
The surgeries were done two weeks prior to start of testing. Rats were fed 4 hours post dose administration. All rats were dosed without anesthesia and sacrificed at the end of the study.
(§1) A quantitative method for determining the amount of (6,7-dimethoxy-2,4-dihydro-indeno[1,2-c]pyrazol-3-yl)-(3-fluoro-phenyl)-amine Compound 1 and its major metabolites, glucuronide A (Cpd 1-GluA) and glucuronide B (Cpd 1-GluB) (see Scheme A) in rat plasma was developed using phenacetin as an internal standard. [drawing 1]
(§2) The two glucuronide conjugates were prepared and purified to permit accurate quantification of the levels of intact parent Compound 1 versus Cpd 1-GluA and Cpd 1-GluB. Each standard curve for Compound 1, Cpd 1-GluA, and Cpd 1-GluB generated from rat plasma included ten concentration levels. […] The quantitative procedure for each sample included: sample preparation, HPLC separation and mass spectrometry detection.
(§3) The rat plasma was prepared using protein precipitation techniques. Reference standards and quality control samples in rat plasma for Compound 1 were transferred to a 96 deep-well plate. The precipitation solution contained 100 ng/ml of internal standard in acetonitrile. 300 μl of precipitation solution were added to 100 μl of each standard, quality control and plasma sample. Samples were vortexed for 10 mins, then centrifuged at 4500 RPM for 10 mins. 10 μl of each sample were injected for LC/MS/MS analysis.
(§4) The HPLC column chosen for the bioanalysis was purchased from Thermo Electron (Hypersil BetaBasic C18, 5 cm×2.1 mm). The eluting solvents were composed of Solvent A: 0.1% formic acid in H2O and Solvent B: 0.1% formic acid in acetonitrile. A step gradient was used and flow rate was 300 μl/min. The total run time was 3.2 mins. Solvent B was increased from 35% at 0 min to 75% at 2.1 mins and decreased back to 35% at 2.2 mins. The retention times for Compound 1, phenacetin, Cpd 1-GluA and Cpd 1-GluB were 1.1 min, 0.9 min, 1.3 min, and 1.6 min, respectively.
API3000 with a Turbo Ionspray interface from Applied Biosystems was used for the detection of Compound 1, the internal standard and major metabolites. Electrospray ionization was performed in the positive ion mode heated nebulizer with a temperature of 300° C. LC/MS/MS chromatograms were acquired in MRM (multiple reaction mode). […]

[2] = IV pharmacokinetics of Compound 1 and its glucuronides in rats; assay type: in vivo, rat
Method: Two separate IV studies were carried out using two separate lots of animals. IV-A was run on the same lot of animals as the oral gavage study and IV-B was run on the same lot of animals as the intraduodenal and intra-colonic studies.
For the IV dosing solutions (IV), Compound 1 was prepared by addition to DI water containing 20% hydroxypropyl β-cyclodextran by weight.
For the IV and oral gavage dosing (sampling at jugular and portal vein), young adult male Sprague Dawley rats weighing 250-400 g were purchased from Hilltop Lab Animals Inc. All rat experiments were conducted under approved animal protocols. The rats for the oral gavage dosing were catheterized at Hilltop Lab Animals Inc, had two chronic catheters for sampling: jugular and portal, were housed in cages of Culex™ Automated Blood Sampler (ABS) and blood samples were collected simultaneously via both cannula and were controlled by the Culex™ ABS control software.
as §1, §2, §3, §4
API3000 with a Turbo Ionspray interface from Applied Biosystems was used for the detection of Compound 1, the internal standard and major metabolites. Electrospray ionization was performed in the positive ion mode heated nebulizer with a temperature of 300° C. LC/MS/MS chromatograms were acquired in MRM (multiple reaction mode). The MRM transitions for Compound 1, the internal standard, Cpd 1-GluA and Cpd 1-GluB were from 326.3 to 190.6, 181.1 to 110.3, 502.2 to 368.3 and 502.2 to 326.4, respectively.
Pharmacokinetic analysis of the plasma concentration data was performed to determine the maximum plasma concentration (Cmax) for the oral dose, and the concentration at zero time (C0; Compound 1 only) by the extrapolation of drug concentrations back to the time of i.v. dosing, the time to maximum plasma concentration (Tmax) following the oral dose, area under the plasma concentration vs. time curve (AUC), terminal half-life (t1/2), plasma clearance (CL/F; Compound 1 only), and volume of distribution at steady state (Vdss; Compound 1 only) for the i.v. dose, using the WinNonlin (Version 3.1, Pharsight, Palo Alto, Calif.) validated computer program.

[3] = rats N=6, Compound 1 10 mg/kg intracolonic with β-glucuronidase
[4] = rats N=6, Compound 1 10 mg/kg intracolonic without enzyme

COc1cc2c(cc1OC)-c1n[nH]c(Nc3cccc(F)c3)c1C2 [Compound 1, (6,7-dimethoxy-2,4-dihydro-indeno[1,2-c]pyrazol-3-yl)-(3-fluoro-phenyl)-amine] showed an AUC ([1]; rats N=6, Compound 1 10 mg/kg intracolonic with β-glucuronidase, read-out: AUC average ± standard deviation 0 to 6 hours) of 9.5 ± 2.5 ng·h/mL, a Cmax [1, 3] of 4 ± 0.6 ng/mL and an AUC ([1]; rats N=6, Compound 1 10 mg/kg intracolonic without enzyme, read-out: AUC average ± standard deviation 0 to 6 hours) of 15.5 ± 24.9 ng·h/mL. The Cmax [1, 4] was 9.5 ± 17.9 ng/mL, the AUC ([1]; with and without β-glucuronidase, read-out: AUC of parent after intracolonic administration) was < 16 ng·h/mL and the concentration at 0 h [1, 3] was 0 ng/mL. For the same compound, the concentration at 0.25 h [1, 3] was 129 ± 41.4 ng/mL, the concentration at 0.5 h [1, 3] was 107 ± 26.6 ng/mL and the concentration at 1 h [1, 3] was 75.6 ± 35 ng/mL. It also gave a concentration at 2 h [1, 3] of 21.2 ± 12.5 ng/mL, a concentration at 3 h [1, 3] of 12.9 ± 4.3 ng/mL and a concentration at 4 h [1, 3] of 9.5 ± 3.1 ng/mL. For the same compound, the concentration at 5 h [1, 3] was 3.7 ± 6.3 ng/mL, the concentration at 6 h [1, 3] was 1.7 ± 2.7 ng/mL and the concentration at 0 h [1, 4] was 0 ng/mL. For the same compound, the concentration at 0.25 h [1, 4] was 6.4 ± 11.5 ng/mL, the concentration at 0.5 h [1, 4] was 8 ± 15.7 ng/mL and the concentration at 1 h [1, 4] was 8.7 ± 18.2 ng/mL. For the same compound, the concentration at 2 h [1, 4] was 2 ± 3.1 ng/mL, the concentration at 3 h [1, 4] was 1.1 ± 2.7 ng/mL and the concentration at 4 h [1, 4] was 0 ng/mL. For the same compound, the concentration at 5 h [1, 4] was 0 ng/mL, the concentration at 6 h [1, 4] was 0 ng/mL and the “Plasma level of Compound 1 relative to level of the metabolites” value ([2]; IV administration) was 2%. The AUC ([2]; Sprague Dawley, rat, plasma, male rats N=4, Compound 1 2 mg/kg IV, read-out: AUC average ± standard deviation) was 345 ± 42 ng·h/mL, the C0 ([2]; Sprague Dawley, rat, plasma, male rats N=4, Compound 1 2 mg/kg IV, read-out: C0 (concentration at zero time, by extrapolation)) was 783 ng/mL and the Cmax ([2]; Sprague Dawley, rat, plasma, male rats N=4, Compound 1 2 mg/kg IV, read-out: Cmax average ± standard deviation) was 783 ± 233 ng/mL. It also gave a concentration at 0.08 h ([2]; Sprague Dawley, rat, plasma, male rats N=4, Compound 1 2 mg/kg IV, retro orbital sinus, 0.08 hrs) of 610 ng/mL, a concentration at 0.33 h ([2]; Sprague Dawley, rat, plasma, male rats N=4, Compound 1 2 mg/kg IV, retro orbital sinus, 0.33 hrs) of 286 ng/mL and a concentration at 1 h ([2]; Sprague Dawley, rat, plasma, male rats N=4, Compound 1 2 mg/kg IV, retro orbital sinus, 1 hr) of 71.3 ng/mL. For the same compound, the concentration at 2 h ([2]; Sprague Dawley, rat, plasma, male rats N=4, Compound 1 2 mg/kg IV, retro orbital sinus, 2 hrs) was 16.3 ng/mL, the concentration at 4 h ([2]; Sprague Dawley, rat, plasma, male rats N=4, Compound 1 2 mg/kg IV, retro orbital sinus, 4 hrs) was 1.2 ng/mL and the concentration at 8 h ([2]; Sprague Dawley, rat, plasma, male rats N=4, Compound 1 2 mg/kg IV, retro orbital sinus, 8 hrs) was 0 ng/mL. The concentration at 24 h ([2]; Sprague Dawley, rat, plasma, male rats N=4, Compound 1 2 mg/kg IV, retro orbital sinus, 24 hrs) was 0 ng/mL.
